Source: US12331022B2, “Spiropiperidine allosteric modulators of nicotinic acetylcholine receptors” (Merck Sharp & Dohme LLC, priority 2019, dated 2025)
Where two headings read alike, the source gives them in different places.

Target: T1, human α7 nAChR (Homo sapiens, UniProt P36544)
T1 construct: host or cells: HEK
Assay: Automated patch-clamp electrophysiology functional assay (Assay A)
Type: cell-based
Conditions: HEK cell line stably expressing human RIC-3 and human α7, IonFlux HT whole-cell population patch, with or without 40 μM acetylcholine
Procedure, shortened: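 Whole-cell population patch clamp at −60 mV, room temperature, on HEK cells stably co-expressing human α7 and RIC-3; compounds tested at three ascending concentrations per recording, alone (agonism) or with 40 μM acetylcholine (potentiation). Currents normalised to an initial 1 s 40 μM acetylcholine response; EC50 from concentration series.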

T1 sequence (P36544 23-502): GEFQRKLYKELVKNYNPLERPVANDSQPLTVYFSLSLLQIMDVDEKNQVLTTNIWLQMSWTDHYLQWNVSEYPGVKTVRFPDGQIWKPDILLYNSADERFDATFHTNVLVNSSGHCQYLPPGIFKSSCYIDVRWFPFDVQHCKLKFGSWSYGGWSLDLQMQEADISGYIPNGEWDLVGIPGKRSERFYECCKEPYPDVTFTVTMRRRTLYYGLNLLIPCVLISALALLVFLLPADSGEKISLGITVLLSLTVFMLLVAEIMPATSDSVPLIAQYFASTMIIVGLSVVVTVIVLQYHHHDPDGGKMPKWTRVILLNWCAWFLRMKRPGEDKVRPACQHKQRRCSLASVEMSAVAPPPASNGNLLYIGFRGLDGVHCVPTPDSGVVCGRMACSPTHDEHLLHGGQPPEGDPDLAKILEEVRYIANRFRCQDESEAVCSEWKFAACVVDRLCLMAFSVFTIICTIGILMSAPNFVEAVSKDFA

`COc1ccc(Cl)cc1NC[C@@H]1C(F)(F)C12CCN(S(N)(=O)=O)CC2` [Example A59, (2R)-2-{[(5-chloro-2-methoxyphenyl)amino]methyl}-1,1-difluoro-6-azaspiro[2.5]octane-6-sulfonamide] gave an EC50 (read-out: α7 nAChR EC50) of 22 nM and an EC50 (read-out: α7 nAChR Potency) of at most 100 nM.

In the case of `NS(=O)(=O)N1CCC2(CC1)C[C@H]2COc1cccc(N2CCOCC2)n1` [Example 16, (1R)-1-({[6-(Morpholin-4-yl)pyridin-2-yl]oxy}methyl)-6-azaspiro[2.5]octane-6-sulfonamide], the EC50 (read-out: α7 nAChR EC50) is reported as 100 nM and the EC50 (read-out: α7 nAChR Potency) is reported as 100 to 500 nM.

`NS(=O)(=O)N1CCC2(CC1)C(CSc1ccc(F)cc1C(F)(F)F)C2(F)F` (centres unmarked) [Example 17, 1,1-Difluoro-2-({[4-fluoro-2-(trifluoromethyl)phenyl]sulfanyl}methyl)-6-azaspiro[2.5]octane-6-sulfonamide] was tested, and the EC50 (read-out: α7 nAChR EC50) was 720 nM and the EC50 (read-out: α7 nAChR Potency) was 500 to 5000 nM.

In the case of `NS(=O)(=O)N1CCC2(CC1)C[C@H]2COc1cccc(-c2ccncc2)n1` [Example A58, (1R)-1-[(2,4′-bipyridin-6-yloxy)methyl]-6-azaspiro[2.5]octane-6-sulfonamide], the EC50 (read-out: α7 nAChR Potency) is reported as 500 to 5000 nM.

Work on `COc1ccc(Cl)cc1OCC1C(F)(F)C12CCN(S(N)(=O)=O)CC2` (single isomer, unassigned) [Example A2, 2-[(5-chloro-2-methoxyphenoxy)methyl]-1,1-difluoro-6-azaspiro[2.5]octane-6-sulfonamide] yielded an EC50 (read-out: α7 nAChR EC50) of 25 nM and an EC50 (read-out: α7 nAChR Potency) of at most 100 nM.

`COc1ccc(Cl)cc1OCC1CC12CCN(S(N)(=O)=O)CC2` (racemic) [Example A42, 1-[(5-chloro-2-methoxyphenoxy)methyl]-6-azaspiro[2.5]octane-6-sulfonamide] was tested, and the EC50 (read-out: α7 nAChR EC50) was 120 nM and the EC50 (read-out: α7 nAChR Potency) was 100 to 500 nM.
